Measured values published in patent US12077503B2, “Substituted cyclic amides and their use as herbicides” (FMC CORPORATION, priority 2015, dated 2024).

Tests used:
Type in all cases: in vivo
[1] = system: ducksalad (Heteranthera limosa); experiment: Test B flooded paddy test; settings: Flood, 250 g ai/ha; 0 to 100 scale where 0 is no effect and 100 is complete control; 13 to 15 d
How it was run: (§1)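 Plants at 2-leaf stage flooded to 3 cm above soil, with compounds applied directly to paddy water and that depth maintained. Plants kept in greenhouse 13–15 d. Visual rating versus controls on a 0 (no effect) to 100 (complete control) scale.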

[2] = system: barnyardgrass (Echinochloa crus-galli); experiment: Test B flooded paddy test; settings: Flood, 250 g ai/ha; 0 to 100 scale where 0 is no effect and 100 is complete control; 13 to 15 d
How it was run: as §1

[3] = system: sedge, umbrella (small-flower umbrella sedge, Cyperus difformis); experiment: Test B flooded paddy test; settings: Flood, 250 g ai/ha; 0 to 100 scale where 0 is no effect and 100 is complete control; 13 to 15 d
How it was run: as §1

[4] = system: rice (Oryra sativa); experiment: Test B flooded paddy test; settings: Flood, 250 g ai/ha; 0 to 100 scale where 0 is no effect and 100 is complete control; 13 to 15 d
How it was run: as §1

[5] = system: ryegrass, Italian (Italian ryegrass, Lolium multiflorum); experiment: Test A preemergence
How it was run: (§2)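 Preemergence directed soil spray on seeded pots, or postemergence application to plants 2–10 cm, one- to two-leaf. Solvent mixture non-phytotoxic, with surfactant. Scored ~10 d later, visually, 0–100 vs untreated.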

[6] = system: pigweed (Amaranthus retroflexus); experiment: Test A preemergence
[7] = system: giant foxtail (Setaria faberii); experiment: Test A preemergence
How it was run: as §2

[8] = system: Kochia (Kochia scoparia); experiment: Test A preemergence
How it was run: as §2

[9] = system: ragweed (common ragweed, Ambrosia elatior); experiment: Test A preemergence
How it was run: as §2

[10] = system: barnyardgrass (Echinochloa crus-galli); experiment: Test A preemergence
How it was run: as §2

[11] = system: ryegrass, Italian (Italian ryegrass, Lolium multiflorum); experiment: Test A postemergence
How it was run: as §2

[12] = system: Galium (catchweed bedstraw, Galium aparine); experiment: Test A postemergence
How it was run: as §2

[13] = system: pigweed (Amaranthus retroflexus); experiment: Test A postemergence
How it was run: as §2

[14] = system: wheat (Triticum aestivum); experiment: Test A postemergence
How it was run: as §2

[15] = system: giant foxtail (Setaria faberii); experiment: Test A postemergence
How it was run: as §2

[16] = system: Kochia (Kochia scoparia); experiment: Test A postemergence
How it was run: as §2

[17] = system: blackgrass (Alopecurus myosuroides); experiment: Test A postemergence
How it was run: as §2

[18] = system: ragweed (common ragweed, Ambrosia elatior); experiment: Test A postemergence
How it was run: as §2

[19] = system: barnyardgrass (Echinochloa crus-galli); experiment: Test A postemergence
How it was run: as §2

[20] = system: corn (Zea mays); experiment: Test A postemergence
How it was run: as §2

[21] = 125 g ai/ha, Preemergence, visual injury after approximately 10 d, 0 to 100 scale where 0 is no effect and 100 is complete control
[22] = 500 g ai/ha, preemergence, 0 to 100 scale, 0 = no effect, 100 = complete control
[23] = 125 g ai/ha, postemergence, visual rating after approx. 10 d, 0 to 100 scale (0 no effect, 100 complete control)
[24] = 500 g ai/ha, postemergence, visual injury, 0 to 100 scale (0 no effect, 100 complete control), approx. 10 d
[25] = Preemergence, 500 g ai/ha, visual injury approx. 10 d
[26] = 125 g ai/ha, postemergence, visual injury rating on 0 to 100 scale (0 no effect, 100 complete control), approx. 10 d
[27] = Postemergence, 500 g ai/ha, 0 to 100 scale where 0 is no effect and 100 is complete control

**Q.** What does the source list for CN1CC(c2cc(F)cc(F)c2)C(C(=O)Nc2cccc3c2CCCC3)C1=O (stereo not drawn) [Compound 660]?
**A.** Plant response rating, Ducksalad [1]: 60; Plant response rating, Barnyardgrass [2]: 45; Plant response rating, Sedge, Umbrella [3]: 0; Plant response rating, Rice [4]: 15; Plant response rating, Ryegrass, Italian [5, 21]: 0; Plant response rating, Ryegrass, Italian [5, 22]: 20; Plant response rating, Pigweed [6, 21]: 0; Plant response rating, Pigweed [6, 22]: 0; Plant response rating, Foxtail, Giant [7, 21]: 80; Plant response rating, Foxtail, Giant [7, 22]: 90; Plant response rating, Kochia [8, 21]: 0; Plant response rating, Kochia [8, 22]: 0; Plant response rating, Ragweed [9, 21]: 0; Plant response rating, Ragweed [9, 22]: 0; Plant response rating, Barnyardgrass [10, 21]: 60; Plant response rating, Barnyardgrass [10, 22]: 90; Plant response rating, Ryegrass, Italian [11, 23]: 0; Plant response rating, Ryegrass, Italian [11, 24]: 0; Plant response rating, Galium [12, 23]: 0; Plant response rating, Galium [12, 24]: 0; Plant response rating, Pigweed [13, 23]: 0; Plant response rating, Pigweed [13, 24]: 0; Plant response rating, Wheat [14, 23]: 0; Plant response rating, Wheat [14, 24]: 0; Plant response rating, Foxtail, Giant [15, 23]: 80; Plant response rating, Foxtail, Giant [15, 24]: 90; Plant response rating, Kochia [16, 23]: 0; Plant response rating, Kochia [16, 24]: 0; Plant response rating, Blackgrass [17, 23]: 0; Plant response rating, Blackgrass [17, 24]: 40; Plant response rating, Ragweed [18, 23]: 0; Plant response rating, Ragweed [18, 24]: 0; Plant response rating, Barnyardgrass [19, 23]: 50; Plant response rating, Barnyardgrass [19, 24]: 80; Plant response rating, Corn [20, 23]: 0; Plant response rating, Corn [20, 24]: 0

**Q.** What does the source list for C=C(Cl)CN1CC(c2cccc(C(F)(F)F)c2)C(C(=O)Nc2ccccc2F)C1=O (stereo not drawn) [Compound 482]?
**A.** Plant response rating, Ducksalad [1]: 0; Plant response rating, Barnyardgrass [2]: 0; Plant response rating, Sedge, Umbrella [3]: 0; Plant response rating, Rice [4]: 0; Plant response rating, Ryegrass, Italian [5, 21]: 0; Ryegrass, Italian plant response rating (0 to 100 scale, 0 is no effect, 100 is complete control) [5, 25]: 0; Plant response rating, Pigweed [6, 21]: 0; Pigweed plant response rating (0 to 100 scale, 0 is no effect, 100 is complete control) [6, 25]: 0; Plant response rating, Foxtail, Giant [7, 21]: 70; Foxtail, Giant plant response rating (0 to 100 scale, 0 is no effect, 100 is complete control) [7, 25]: 80; Plant response rating, Kochia [8, 21]: 0; Kochia plant response rating (0 to 100 scale, 0 is no effect, 100 is complete control) [8, 25]: 0; Plant response rating, Ragweed [9, 21]: 0; Ragweed plant response rating (0 to 100 scale, 0 is no effect, 100 is complete control) [9, 25]: 0; Plant response rating, Barnyardgrass [10, 21]: 0; Barnyardgrass plant response rating (0 to 100 scale, 0 is no effect, 100 is complete control) [10, 25]: 10; Ryegrass, Italian plant response rating [11, 26]: 0; Plant response rating, Ryegrass, Italian [11, 27]: 0; Galium plant response rating [12, 26]: 0; Plant response rating, Galium [12, 27]: 0; Pigweed plant response rating [13, 26]: 0; Plant response rating, Pigweed [13, 27]: 0; Wheat plant response rating [14, 26]: 0; Plant response rating, Wheat [14, 27]: 0; Foxtail, Giant plant response rating [15, 26]: 0; Plant response rating, Foxtail, Giant [15, 27]: 20; Kochia plant response rating [16, 26]: 0; Plant response rating, Kochia [16, 27]: 0; Blackgrass plant response rating [17, 26]: 0; Plant response rating, Blackgrass [17, 27]: 0; Ragweed plant response rating [18, 26]: 0; Plant response rating, Ragweed [18, 27]: 0; Barnyardgrass plant response rating [19, 26]: 0; Plant response rating, Barnyardgrass [19, 27]: 20; Corn plant response rating [20, 26]: 0; Plant response rating, Corn [20, 27]: 0
